From ChEMBL document CHEMBL1201862, “PubChem BioAssay data set” (2004)
Counter-ions that a name gives are not always drawn.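 Grown in 96-well plates, cells were treated for 48 hours with each compound at five concentrations. Insufficient inhibition: endpoint recorded as highest concentration tested. GI50 marks 50% less growth.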 Calls of active or inactive are those of the source. No stated cut-off is given here; in the data, active = GI50 up to about 1.1 µM and inactive = higher.

Assays:
Experiment in all cases: DTP human tumour cell line panel, 48 h
[1] = test system: Hs-578T
[2] = test system: DMS-114
[3] = test system: DMS-273
[4] = test system: LXFL 529
[5] = test system: XF498
[6] = test system: HOP-18
[7] = test system: M19-MEL
[8] = test system: SNB-78

## COc1ccc(/C=C2\N=C(SC)NC2=O)cc1
[1]
  GI50: 64.6 µM (inactive)

## O=C(C=P(c1ccccc1)(c1ccccc1)c1ccccc1)c1ccccc1-c1ccccc1C(=O)C=P(c1ccccc1)(c1ccccc1)c1ccccc1
[1]
  GI50: 0.0319 µM (active)

## Cc1cc([N+](=O)[O-])c(C)c(Br)c1C
[1]
  GI50: 42.8 µM (inactive)

## CCN(CC)CC[S+]([O-])c1c2cc(OC)ccc2nc2ccc(OC)cc12 (stereo unspecified)
[1]
  GI50: 3.24 µM (inactive)

## N#CC1=C2Sc3ccccc3N2[C@H](c2ccccc2)[C@H]2COC(=O)[C@@H]12
[1]
  GI50: > 100 µM (inactive)

## COc1cc(C2SCC(=O)N2c2ccc(Oc3ccc(Cl)cc3)c(Cl)c2)cc(OC)c1OC (stereo unspecified)
[1]
  GI50: 22.2 µM (inactive)

## CCOC(=O)C(C(CC(=O)OC)NC(=O)OCc1ccccc1)C1(C)OCCO1 (stereo unspecified)
[2]
  GI50: > 100 µM (inactive)
[3]
  GI50: > 100 µM (inactive)
[4]
  GI50: > 100 µM (inactive)
[5]
  GI50: 61.4 µM (inactive)

## C[C@H](O)CCC(=O)c1ccoc1
[2]
  GI50: > 100 µM (inactive)
[3]
  GI50: > 100 µM (inactive)
[6]
  GI50: 75 µM (inactive)
[4]
  GI50: > 100 µM (inactive)
[7]
  GI50: > 100 µM (inactive)
[8]
  GI50: > 100 µM (inactive)

## COc1ccc(-c2csc(Cc3nc4c(Br)cc(Br)cc4c(=O)n3-c3ccc(OC)cc3)n2)cc1
[1]
  GI50: > 100 µM (inactive)

## CCOC(=O)c1c(OCC)[nH]c(=O)c(C(c2ccc(F)cc2)c2c(O)c(C(=O)OCC)c(OCC)[nH]c2=O)c1O
[1]
  GI50: 20.8 µM (inactive)

## CCCCCCCC(CC(=O)NC(CO)C(=O)NC(CO)CC(C)C)OC(=O)CC(CCCCCCC)OC(=O)CC(CCCCCCC)OC1OC(C)C(O)C(OC2OC(C)C(O)C(OC(C)=O)C2O)C1O (stereo unspecified)
[1]
  GI50: 4.1 µM (inactive)

## O=C(Cn1c2c(c3ccccc31)CCCC2)N1CCOCC1
[1]
  GI50: 35.2 µM (inactive)

## O=C(N[C@@H](c1ccccc1)[C@@H](O)C(=O)OCc1ccc([N+](=O)[O-])cc1)c1ccccc1
[1]
  GI50: > 100 µM (inactive)

## Cc1ccc(N2CCN(CCC(=O)O)CC2)cc1
[1]
  GI50: > 100 µM (inactive)

## O=S(=O)(/C=C/C=C/[S+]([O-])c1ccccc1)c1ccccc1 (stereo unspecified)
[1]
  GI50: 3.51 µM (inactive)

## O=C1Cc2c([nH]c3ccccc23)C2(CC3CCCCN13)OCCO2 (stereo unspecified)
[1]
  GI50: 89.9 µM (inactive)

## CCCCOC(=O)C1CN2C(=NC1(C(F)(F)F)C(F)(F)F)Sc1ccccc12 (stereo unspecified)
[1]
  GI50: 30.6 µM (inactive)

## COc1cc2c(c(OC)c1OC)C(=O)[C@H]1OC(=O)N[C@@H]21
[1]
  GI50: > 100 µM (inactive)

## CC(=O)c1c2c(cc3c1CC1(C3)Cc3cc4c(c(C(=O)O)c3C1)CCCC4)CCCC2.CC(N)c1ccccc1 (stereo unspecified)
[1]
  GI50: 36.6 µM (inactive)

## Clc1nc(Cl)nc(NC23CC4CC(CC(C4)C2)C3)n1
[1]
  GI50: 11.8 µM (inactive)

## NS(=O)(=O)c1ccccc1C(=O)N/N=C(\c1nc2ccc([N+](=O)[O-])cc2[nH]c1=O)C(O)c1ccc([N+](=O)[O-])cc1 (stereo unspecified)
[6]
  GI50: > 100 µM (inactive)
[4]
  GI50: > 100 µM (inactive)
[7]
  GI50: > 100 µM (inactive)
[5]
  GI50: > 100 µM (inactive)

## CC(C(O)Cc1ccccc1)N(C)/N=N/c1ccc([N+](=O)[O-])cc1 (stereo unspecified)
[1]
  GI50: 24 µM (inactive)

## COc1ccc(/C=C(/c2ccccc2)c2c(C)cc(C)c(/C(=C\c3ccc(OC)cc3)c3ccccc3)c2/N=N/c2cc(C)cc(C)c2)cc1
[1]
  GI50: 22.5 µM (inactive)

## Cc1ccc(NC(=O)OCC(COc2ccc(Cl)cc2Cl)OC(=O)Nc2ccc(C)cc2)cc1 (stereo unspecified)
[2]
  GI50: > 100 µM (inactive)
[3]
  GI50: > 100 µM (inactive)
[6]
  GI50: 69.5 µM (inactive)
[4]
  GI50: 81.5 µM (inactive)
[7]
  GI50: > 100 µM (inactive)
[8]
  GI50: > 100 µM (inactive)

## N#CC1=C(S)N(C2OC(CO)C(O)C(O)C2O)C(c2ccccc2)=CC1c1ccco1 (stereo unspecified)
[1]
  GI50: 56.5 µM (inactive)

## Cn1c2ccccc2c2c(=S)c3ccccc3ccc21
[1]
  GI50: > 100 µM (inactive)

## COc1cc(/C=C/C2=NN(c3cccc(S(=O)(=O)O)c3)C3(C2)SCC(=O)N3c2nc3ccccc3s2)cc(OC)c1OC (stereo unspecified)
[1]
  GI50: 56.6 µM (inactive)

## CCOC(=O)CC(=O)Sc1ccccc1
[2]
  GI50: 14.4 µM (inactive)
[3]
  GI50: 20.7 µM (inactive)
[6]
  GI50: > 100 µM (inactive)
[7]
  GI50: 17.9 µM (inactive)
[5]
  GI50: 34.4 µM (inactive)

## COc1ccccc1NC(=O)CC(=O)n1nc(C)c(/N=N/c2ccccc2C(=O)O)c1C
[2]
  GI50: > 100 µM (inactive)
[3]
  GI50: > 100 µM (inactive)
[4]
  GI50: > 100 µM (inactive)
[7]
  GI50: > 100 µM (inactive)
[8]
  GI50: > 100 µM (inactive)
[5]
  GI50: > 100 µM (inactive)

## CC(=O)O[C@H]1CCC2[C@@H]3CCC4Cc5nc6c(nc5C[C@]4(C)C3CC[C@@]21C)CC1CC[C@@H]2C(CC[C@@]3(C)C2CC[C@@H]3C(C)CCCC(C)C)[C@@]1(C)C6 (stereo partly specified)
[1]
  GI50: > 100 µM (inactive)

## C(=N\NC1=NCCN1)/c1cccc2cc3ccncc3nc12
[1]
  GI50: 3.94 µM (inactive)

## CCOC(=O)Nn1cnnc1Cc1ccccc1
[1]
  GI50: 20 µM (inactive)

## COc1ccc(/C=C2\CCC(CNc3cc(C)on3)C2=O)cc1 (stereo unspecified)
[1]
  GI50: 57.9 µM (inactive)

## CC(/C=N\NC(=S)N(C)C)=N/NC(=S)N(C)C
[1]
  GI50: 1.65 µM (inactive)

## O=c1c(-c2ccccc2Cl)coc2cc(F)ccc12
[1]
  GI50: 28.4 µM (inactive)

## O=C1C2C=CC(n3[nH]c(=O)n(Cc4ccccc4)c3=O)CC2C(=O)N1c1ccc(Br)cc1 (stereo unspecified)
[2]
  GI50: > 100 µM (inactive)
[3]
  GI50: > 100 µM (inactive)
[6]
  GI50: > 100 µM (inactive)
[4]
  GI50: > 100 µM (inactive)
[7]
  GI50: > 100 µM (inactive)
[8]
  GI50: > 100 µM (inactive)

## CCCCCOCC(O)CO (stereo unspecified)
[2]
  GI50: > 100 µM (inactive)
[3]
  GI50: > 100 µM (inactive)
[6]
  GI50: > 100 µM (inactive)
[8]
  GI50: > 100 µM (inactive)
[5]
  GI50: 44.6 µM (inactive)

## CC(=O)OCC1OC(n2c3c(cc(C#N)c2=O)CCCCCC3)C(OC(C)=O)C(OC(C)=O)C1OC(C)=O (stereo unspecified)
[1]
  GI50: > 100 µM (inactive)

## O=C(O)CCCN/C(=C1\C(=O)C(=O)N(c2ccccc2)C1=O)c1ccccc1
[1]
  GI50: > 100 µM (inactive)

## CC/C=C/C(/C=C/C[C@]1(CC)C[C@H](CC)[C@H](CC(=O)O)OO1)CC (stereo partly specified)
[1]
  GI50: 1.91 µM (inactive)

## C=C(C)CCC1C=[N+]([O-])OC(C)(C)C1(C)C (stereo unspecified)
[1]
  GI50: > 100 µM (inactive)

## C=C1CN2CC(=C)CN(C1)CS(=O)(=O)N1CC(=C)CN(CC(=C)C1)S(=O)(=O)N1CC(=C)CN(CC(=C)C1)S(=O)(=O)C2
[1]
  GI50: 25.4 µM (inactive)

## NC(=O)c1cc2ccccc2o/c1=N/O
[1]
  GI50: 26.2 µM (inactive)

## CC(=O)N1N=C(c2ccc3ccccc3c2O)CC1C(=O)c1ccco1 (stereo unspecified)
[1]
  GI50: 21.8 µM (inactive)

## Cc1ccc(CNc2ccc(Br)cc2)cc1
[1]
  GI50: 70.6 µM (inactive)

## CCOC(=O)c1cc(-n2nnc3ccccc32)cn1C
[1]
  GI50: > 10 µM (inactive)

## CCOc1ccc(NC(=O)C2=C(C)NC(C)=C(C(=O)Nc3ccc(OCC)cc3)C2c2ccc([N+](=O)[O-])cc2)cc1
[2]
  GI50: 18.4 µM (inactive)
[4]
  GI50: 22.1 µM (inactive)
[7]
  GI50: 26.2 µM (inactive)
[8]
  GI50: 34.1 µM (inactive)
[5]
  GI50: 25.3 µM (inactive)

## Nc1ccccc1.O=C(O)C(C(F)(F)F)C(F)(F)F
[1]
  GI50: > 100 µM (inactive)

## O=c1[nH]nc(Cc2ccccc2)n1/N=C/c1ccccc1O
[1]
  GI50: 51.9 µM (inactive)

## CC(=O)OC(C[C@H](C)[C@@H]1CC[C@]2(C)C3=CCC4C(C)(C)C(=O)CC[C@]4(C)C3CCC12C)C1OC1(C)C (stereo partly specified)
[2]
  GI50: 32.5 µM (inactive)
[3]
  GI50: 17.1 µM (inactive)
[6]
  GI50: > 100 µM (inactive)
[4]
  GI50: 22.4 µM (inactive)
[7]
  GI50: 31.2 µM (inactive)
[5]
  GI50: 18.5 µM (inactive)

## COc1cc2cc(C(=O)N3CC(CCl)c4c3cc([N+](=O)[O-])c3ccccc43)[nH]c2c(OC)c1OC (stereo unspecified)
[1]
  GI50: > 45.1 µM (inactive)

## Cc1ccc2c(c1)NC(=O)CC(c1ccccc1)=N2
[1]
  GI50: > 100 µM (inactive)

## N[C@@H](Cc1ccc(N(CCCl)CCCl)cc1)C(=O)O [MELPHALAN HYDROCHLORIDE]
[2]
  GI50: 20.2 µM (inactive)
[3]
  GI50: 9.71 µM (inactive)
[1]
  GI50: 51.8 µM (inactive)
[4]
  GI50: 49.3 µM (inactive)
[7]
  GI50: 39.6 µM (inactive)
[8]
  GI50: 55.5 µM (inactive)
